The results in this text go back to article PMC2999460, “Porphobilinogen Synthase from the Butterfly, Pieris brassicae: Purification and Comparative Characterization” (2007).

The target in data set [1] is T1, porphobilinogen synthase (PBGS) (Pieris brassicae, UniProt A0A9P0XHI4).
T1 construct: gene PIBRA_LOCUS11261
T1 sequence (A0A9P0XHI4 1-333): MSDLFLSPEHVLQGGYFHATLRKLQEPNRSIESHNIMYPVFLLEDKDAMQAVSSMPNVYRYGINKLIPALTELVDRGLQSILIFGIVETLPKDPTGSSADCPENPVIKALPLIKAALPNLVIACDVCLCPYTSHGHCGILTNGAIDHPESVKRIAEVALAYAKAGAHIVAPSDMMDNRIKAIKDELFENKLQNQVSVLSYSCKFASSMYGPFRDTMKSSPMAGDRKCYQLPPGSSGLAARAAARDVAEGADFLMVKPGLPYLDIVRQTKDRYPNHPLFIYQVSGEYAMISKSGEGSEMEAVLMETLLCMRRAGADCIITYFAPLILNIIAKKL
The experiment in a line: biochemical.

Data set [2] deals with T1, porphobilinogen synthase (PBGS). Put plainly: enzyme activity assay (PBG formation, Ehrlich's reagent, […] nm), Lineweaver-Burk analysis. The class given is biochemical.
For data set [3], the target named is porphobilinogen synthase (PBGS) from Pieris brassicae (Pieris brassicae (endogenous in adult insects)). Put plainly: native gel or EMSA; native PAGE at 4.5, 6.0, 7.5 and 9.75% polyacrylamide (Hedrick and Smith; buffer system of Davis) with reference proteins: 292.3 kDa for the holoenzyme, set against 36.5 kDa for the subunit by SDS/urea-PAGE; purified PBGS and a partially purified preparation.

Substrate in data set [4]: NCC(=O)CCC(=O)O
Put plainly: purified protein. The conditions noted are these: zinc active site.

Consider `CC(=O)CCC(=O)O` [LA, levulinic acid], for which the affinity in data set [1] corresponds to a Ki of 340 µM.
`CC(=O)CC(=O)CCC(=O)O` [SA, 4,6-dioxo-heptanoic acid] displayed an IC50 in data set [2] of 4.5 µM.
In data set [3], “porphobilinogen synthase (PBGS) from Pieris brassicae (enzyme)” gave a stoichiometry N of 8.

B1: porphobilinogen synthase (PBGS) (Pieris brassicae) (protein)
chain: MSDLFLSPEHVLQGGYFHATLRKLQEPNRSIESHNIMYPVFLLEDKDAMQAVSSMPNVYRYGINKLIPALTELVDRGLQSILIFGIVETLPKDPTGSSADCPENPVIKALPLIKAALPNLVIACDVCLCPYTSHGHCGILTNGAIDHPESVKRIAEVALAYAKAGAHIVAPSDMMDNRIKAIKDELFENKLQNQVSVLSYSCKFASSMYGPFRDTMKSSPMAGDRKCYQLPPGSSGLAARAAARDVAEGADFLMVKPGLPYLDIVRQTKDRYPNHPLFIYQVSGEYAMISKSGEGSEMEAVLMETLLCMRRAGADCIITYFAPLILNIIAKKL
B1: in data set [4], the Km turned out to be 360 µM.
